Measured values reported in patent US5484778A, “Phthalocyanine photosensitizers for photodynamic therapy and methods for their use” (priority 1993, dated 1996).

How the values were obtained:
RIF-1 tumors = test: PDT of RIF-1 implanted tumors (Table 7); type: in vivo, C3H/HeN mice; details: 1 mg/kg in corn oil; 675 nm, 135 J/cm^2
How it was run: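 C3H/HeN mice each carried one RIF-1 fibrosarcoma on the back and received 1 mg/kg phthalocyanine as a corn-oil suspension. Volume was measured daily by calipers from a 50±10 mm^3 start and calculated with the hemiellipsoid model.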

[1] = system: Chinese hamster V79-379 cells; test: Clonogenic cell survival / photocytotoxicity in V79 cells (Table 1, FIG. 1, FIG. 2); type: cell-based; details: 1.0 μM, 18 h
Procedure: FIG. 1 is a graph illustrating the photodynamic efficacy of the various compositions of the present invention in comparison to AlPcCl. The phthalocyanine composition compounds of the present invention were tested for their photodynamic efficiency against Chinese hamster fibroblast V79 cells by colony formation. Monolayer cultures were treated with the indicated phthalocyanine composition for 18 hours, irradiated with various fluences of red light, and immediately trypsinized and replated at appropriate aliquots in triplicate. Colonies of at least 50 cells were counted after 7-10 days. The plating efficiency of the untreated cells was approximately 90%.
In this regard, in FIG. 2 the data of FIG. 1 were replotted as a function of the product of the amount of cell-associated phthalocyanine and the light fluence.
(§1) Chinese hamster V79-379 lung fibroblasts were grown in monolayer culture in McCoy's 5A medium (Gibco Laboratories, Grand Island, N.Y.) augmented with 10% calf serum and buffered with 20 mM HEPES (pH 7.4).
(§2) The cells were treated with 1 μM AlPcCl (from Eastman Kodak, Rochester, N.Y.) or with phthalocyanine compositions I-VI (0.5-1.0 μM final concentration in the medium) for 18 hours by adding the appropriate volume of a 1.0 mM stock solution in dimethylformamide (DMF) to the culture medium. The growth medium was replaced with 4 ml Hank's balanced salt solution (HBSS), and the cells were irradiated. The light source was a 500 W tungsten-halogen lamp located approximately 29 inches below the surface of a glass exposure tray. The visible light administered to the cells was filtered to allow passage of only that portion of the visible spectrum above 600 nm (Lee Primary red filter No. 106, Vincent Lighting, Cleveland, Ohio). The fluence rate was approximately 0.074 kJ/m^2 /s at the level of the cell monolayer.
Cells were irradiated at a density of approximately 2×10^6 per 25 cm^2 flask. Immediately after irradiation, the cell monolayer was treated with trypsin, and appropriate aliquots were plated in triplicate to give 100 to 200 colonies in each 10-cm Petri dish. Cell survival was determined by the ability of the cells to form colonies containing at least 50 cells. The response of cells treated with 1 μM AlPcCl and light was compared in each experiment.
Photocytotoxicity of the phthalocyanines compounds I to VI was also assessed by clonogenic assay (Table 1, FIG. 1). In all experiments, 1 μM AlPcCl was included for comparison purposes. From the survival curves (FIG. 1), the fluence reducing the cell survival to 10% (F10) was obtained. The ratio of the F10 for AlPcCl and the F10 for the test compound is recorded in Table 1.
In order to take differences in cellular uptake into consideration in the assessment of the relative efficiency of these phthalocyanines as photosensitizers of V79 cells, the survival data were replotted against the product of intracellular phthalocyanine concentration and light fluence (FIG. 2). From these curves, the product of intracellular concentration and light fluence reducing survival to 10% (CF10) was obtained, and comparisons of the values for AlPcCl and the test compounds are recorded in Table 1.

[2] = system: Chinese hamster V79-379 cells; test: Growth delay of V79 cultures after red light (Table 1); type: cell-based
Procedure: as §1, §2
At the time of light exposure, there were approximately 1.5×10^5 cells per 25 cm^2 flask. Following irradiation, the HBSS was replaced by 10 ml of fresh complete growth medium, and the cultures were returned to the 37° C. incubator. At various times before and after irradiation, duplicate cultures were trypsinized and counted. Controls included untreated cells and cells treated with light alone or drug alone. In addition, in each experiment, the drug to be tested was compared to a standard treatment, i.e. 1 μM AlPcCl for 18 hours followed by 12 kJ/m^2 light.
The inhibition of V79 culture growth was measured during a three day period following red light irradiation (12 kJ/m^2) of phthalocyanine-pretreated cells. With each of the active compounds, as well as with AlPcCl, there was an initial decrease in cell density, as dead cells became detached from the monolayer. Thereafter, the cell number per flask increased, as living cells grew and divided. The time for the cell density to recover to the level at the time of light exposure was considered the growth delay. […] The ratio of the growth delay for the test photosensitizer and the growth delay for AlPcCl measured in the same experiment is recorded in Table 1.

L5178Y cells = test: Induction of apoptosis (DNA fragmentation) in L5178Y-R cells (Table 6); type: cell-based, mouse; details: 1 μM at a fluence of 30 kJ/m^2
How it was run: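 Exponentially growing mouse lymphoma L5178Y-R cells loaded 18 hours with phthalocyanine at various concentrations, then irradiated with >600 nm red light (up to 30 kJ/m^2, ~74 W/m^2). DNA isolated 2 hours post-PDT, run on 1.5% agarose; value is minimum PDT dose (concentration × fluence) giving visible DNA ladder.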

viruses = details: New York Blood Center (Ben-Hur); cited from earlier work
[3] = system: Chinese hamster fibroblasts, i.e. V79 cells
From the text: Initially, applicants examined the photocytotoxicity of twenty-one phthalocyanines taken from a collection in the applicants' laboratories to Chinese hamster fibroblasts, i.e. V79 cells.

C[N+](C)(C)CCC[Si](C)(C)O[Si]1(O)n2c3c4ccccc4c2N=C2N=C(N=c4c5ccccc5c(n41)=NC1=NC(=N3)c3ccccc31)c1ccccc12.[I-] (stereo not drawn) [Compound V, HOSiPcOSi(CH3)2 (CH2)3 N(CH3)3^+ I^-]
Doubling Time of Initial Tumor Volume after PDT (RIF-1 tumors): 6 days | CF10 (AlPcCl)/CF10 (Pc) ([1]; CF10 = intracellular concentration x fluence reducing survival to 10%): 3.0 | F10 (AlPcCl)/F10 (Pc) ([1]; F10 = fluence reducing survival to 10%): 0.59 | Growth Delay, efficiency relative to 1 μM AlPcCl ([2]; 1.0 μM, 18 h, 12 kJ/m^2 red light): 0 | inhibition of V79 culture growth (in words) ([2]; red light 12 kJ/m^2, three day period): less inhibition of culture growth | induction of apoptosis (L5178Y cells): did not induce apoptosis | purging viruses from blood and/or blood components (viruses): effective at purging viruses from blood and/or blood components

CCN(CC)CC(O)COCCC[Si](C)(C)O[Si]1(O)n2c3c4ccccc4c2N=C2N=C(N=c4c5ccccc5c(n41)=NC1=NC(=N3)c3ccccc31)c1ccccc12 (stereo not drawn) [HOSiPcOSi(CH3)2 (CH2)3 OCH2 --CHOHCH2 N(C2 H5) 2]
photocytotoxicity (in words) [3]: excellent photocytotoxicity | uptake by V79 cells (in words) [3]: taken up efficiently by the Chinese hamster fibroblast V79 cells
